Measurements: patent US10995068B2, “Synthetic sphingolipid-like molecules, drugs, methods of their synthesis and methods of treatment” (The Regents of the University of California, priority 2015, dated 2021)
“Also recorded” adds a separate entry of the source.

Columns and labels:
[1] = Lymphocyte sequestration in mice; format: in vivo, C57BL6 mice; settings: 10 mg/kg intraperitoneally, blood after 12 h, compared to saline
From the text: (§1) In more exemplary embodiments, compounds 5 and 5-P were further examined for their ability to activate multiple S1P receptors in vivo. In particular, mouse heart rate and lymphocyte sequestration were examined. Mouse heart rate decreases causing bradycardia when S1P receptor 3 is activated while in humans this effect may be mediated by S1P receptor 1. In both mice and humans, lymphocytes are sequestered when the S1P receptor 1 is activated.
Lymphocyte sequestration: Female 8-24 week old C57BL6 mice are injected intraperitoneally with vehicle (0.9% saline or 20% acidified DMSO in 0.9% saline), 10 mg/kg FTY720, FTY720-phosphate, 5, or 5-P. After 12 h, blood is collected from the retro-orbital sinus under ketamine/xylazine anesthesia. 10 μL of whole blood is added to 190 μL of ACK red blood cell lysis buffer, incubated at room temperature for 3-5 minutes […], and the white blood cells recovered by centrifugation. Nucleated cells (Hoechst33342 positive) are counted using a hemocytometer to obtain the white blood cell count. Separately, 50 μL of whole blood is added to 1 mL of ACK red blood cell lysis buffer and incubated for 3-5 minutes at room temperature. Cells are washed with FACS wash (2% FCS in PBS with 0.05% NaN3) and red blood cell lysis repeated. Tubes are decanted and resuspended in 100 μL of FACS block (10% FCS in PBS with 0.05% NaN3) with directly conjugated antibodies recognizing B220, CD4, or CD8 (all from Biolegend, San Diego) for 30 min on ice. Cells are analyzed on a BD LSR II flow cytometer; the analysis is restricted to live cells (DAPI negative). These experiments are performed in accordance with all national or local guidelines and regulations and are approved by the UCI Institutional Animal Care and Use Committee.

S1P receptor 5 = biological target: T1, S1P receptor 5 (Homo sapiens, UniProt Q9H228); test: S1P receptor activation in CHO cells, S1P5; format: cell-based; settings: CHO cells over-expressing human S1P5
T1 construct: expressed in transfected cells
From the text: (§2) Phosphorylation may have effects on S1P receptor activity that could cause bradycardia. Bradycardia, the dose-limiting toxicity that prevents the use of FTY720 in cancer patients, stems from FTY720-P's actions on S1P receptors 1 and 3. (Camm, J., et al. (2014) Am. Heart J. 168, 632-644; Cohen, J. A., Chun, J. (2011) Ann. Neurol. 69, 759-777; Sanna, M. G., et al. (2004) J. Biol. Chem. 279, 13839-13848; the disclosures of which are incorporated herein by reference). Phosphorylation by sphingosine kinase may make compounds competent to activate S1P receptors. FTY720, for example, when phosphorylated is known to activate S1P receptors 1 and 3. Because compound 5 could be phosphorylated, the activity of compound 5 and its phosphate 5-P (FIG. 28) on S1P receptors was evaluated (FIG. 32).
(§3) 51P1-5 activation: Chinese hamster ovary (CHO) cells stably over-expressing the different human 51P receptor subtypes are used. S1P1, S1P4 and S1P5 overexpressing CHO cells are cultured in medium containing alpha-MEM supplemented with 10% FBS, 50 μg/ml gentamycin and 0.5 mg/ml G418. S1P2 and S1P3 overexpressing CHO cells are cultured in RPMI containing 10% FBS, 50 μg/ml gentamycin and 0.5 mg/ml G418. Prior to stimulation, cells are rendered serum-free for 24 h. Stimulation is carried out for 10 min in serum-free DMEM containing 0.1 mg/ml of fatty-acid free BSA in the absence or presence of the various compounds or 51P. Protein lysates are prepared using a buffer containing (50 mM Tris pH 7.4, 150 mM NaCl, 10% glycerol, 1% Triton X-100, 2 mM EDTA, 2 mM EGTA, 40 mM β-glycerophosphate, 50 mM sodium fluoride, 10 mM sodium pyrophosphate, 2 mM dithiothreitol, 0.2 mM sodium orthovanadate). Cells are homogenized by one 5 sec burst in a MSE Ultrasonic Disintegrator, centrifuged and taken for protein determination. Equal amounts of protein are separated by SDS-PAGE (10% polyacrylamide gel), transferred to nitrocellulose membranes and subjected to Western blot analysis. Bands were stained using IRDye® secondary antibodies and visualized by the LICOR Odyssey® Fc Imaging system. Antibodies against phospho-Thr202/Tyr204-p42/p44-MAPK and phospho-Ser PKC substrate are from Cell Signaling, Frankfurt am Main, Germany. Polyclonal antisera against total p42 and total p44 were generated and characterized as previously described. (Huwiler, A.; Pfeilschifter, J. Br. J. Pharmacol. 1994, 113, 1455-1463; disclosure of which is incorporated herein by reference).

S1P receptor 2 = biological target: T2, S1P receptor 2 (Homo sapiens, UniProt O95136); test: S1P receptor activation in CHO cells, S1P2; format: cell-based; settings: CHO cells over-expressing human S1P2
T2 construct: expressed in transfected cells
From the text: as §2, §3

[2] = Heart rate by ECG telemetry in mice; format: in vivo, C57BL/6 mice; settings: single dose 10 mg/kg intraperitoneally, compared to saline controls
From the text: as §1
As shown in the telemetry readings detailed in FIG. 36, FTY720 (B) slowed heart rate comparison to compound 5 (C) and the control (A, saline). As shown in A, after administering saline, normal sinus rhythm with clearly discernible P waves, representing atrial depolarization, and QRS complexes, representing ventricular depolarization, at regular intervals is observed. The heart rate in this tracing was approximately 600 beats per minute (BPM). […] Finally, as shown in C, for exemplary embodiment compound 5, similar to the saline injection, normal sinus rhythm with well-defined and consistent P waves and QRS complexes were present following injection. The heart rate in this tracing was approximately 600 BPM, similar to saline.
Heart rate: C57BL/6 mice are surgically implanted with DSI TA-ETAF20 electrocardiographic telemetry devices (Data Sciences International, St. Paul, Minn.). The electrocardiographic data is collected and recorded using the PhysioTel telemetry system and Dataquest A.R.T 4.0 software (DSI). The telemetry device is implanted in the mouse's abdominal cavity with biopotential leads sutured in place in the chest wall. Buprenorphine (0.05 mg/kg) is administered every 12 h after surgery for pain management and enrofloxacin (3 mg/kg) is administered 2× per day for 7 days post-surgery as an antibiotic. Mice are permitted two weeks recovery after surgery before initiation of baseline telemetry recordings. Heart rate is calculated from ECG data taken in the freely moving, conscious mice. Mice are divided into two groups of 3 mice and treated intraperitoneally with a single dose of vehicle (0.9% saline or 20% acidified DMSO in 0.9% saline), 10 mg/kg FTY720, FTY720-Phosphate, 5, or 5-P and heart rate monitored continuously for 10 h. Mice are rested for two weeks at which point the experiment is repeated with the mice assigned to the alternate group. These experiments are performed in accordance with all national or local guidelines and regulations and were approved by the UCI Institutional Animal Care and Use Committee.

S1P receptor 4 = biological target: T3, S1P receptor 4 (Homo sapiens, UniProt O95977); test: S1P receptor activation in CHO cells, S1P4; format: cell-based; settings: CHO cells over-expressing human S1P4
T3 construct: expressed in transfected cells
T3 sequence (O95977 1-384): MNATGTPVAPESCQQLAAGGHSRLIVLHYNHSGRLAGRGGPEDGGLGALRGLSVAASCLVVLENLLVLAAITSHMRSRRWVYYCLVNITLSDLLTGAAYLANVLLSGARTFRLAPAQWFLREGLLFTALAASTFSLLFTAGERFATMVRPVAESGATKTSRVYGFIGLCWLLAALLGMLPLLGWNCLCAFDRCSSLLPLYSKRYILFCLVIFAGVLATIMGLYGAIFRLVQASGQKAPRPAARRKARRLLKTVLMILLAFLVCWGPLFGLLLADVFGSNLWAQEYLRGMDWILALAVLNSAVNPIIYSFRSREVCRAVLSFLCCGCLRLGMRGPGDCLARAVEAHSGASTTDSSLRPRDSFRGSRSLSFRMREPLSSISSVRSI
From the text: as §2, §3

S1P receptor 1 = biological target: T4, S1P receptor 1 (Homo sapiens, UniProt P21453); test: S1P receptor activation in CHO cells, S1P1; format: cell-based; settings: CHO cells over-expressing human S1P1, 10 min stimulation, Western blot
T4 construct: expressed in transfected cells
From the text: as §2, §3

S1P receptor 3 = biological target: T5, S1P receptor 3 (Homo sapiens, UniProt Q99500); test: S1P receptor activation in CHO cells, S1P3; format: cell-based; settings: CHO cells over-expressing human S1P3
T5 construct: expressed in transfected cells
From the text: as §2, §3

FL5.12 cells = test: Vacuolation assay; format: cell-based, murine; design: key to Vacuolation score: 0-100 score: (3×%cat3+2×%cat2+1×%cat1)/3; cells graded 0-3 for vacuoles; settings: FL5.12 cells
Method: In an exemplified study, nutrient transporter down-regulation was monitored by quantifying surface levels of the amino acid transporter-associated protein, CD98, by flow cytometry. Vacuolation was scored in a range from 0 to […], as determined by a vacuolation assay described in greater detail in the Materials and Methods section below.
Vacuolation assay: Cells were evaluated at 100× using brightfield microscopy and a Nikon TE2000-S fluorescence microscope equipped with DIC filters. Vacuolation was quantified after a 3 h incubation period in 2.5 μM compound except where otherwise indicated. To calculate a vacuolation score, vacuolation severity in at least 15 individual cells/experiment was assessed qualitatively. Scores were assigned to individual cells as follows: 0=no vacuoles, 1=very small vacuoles, 2=multiple well-defined vacuoles, 3=multiple large vacuoles. To calculate the vacuolation score associated with a compound, the following formula was used: vacuolation score=[(3×% cells in category 3)+(2×% cells in category 2)+(1×% cells in category 1)]/3.
The score is divided by 3 so that a compound with 100% of its cells in category 3 would have a vacuolation score of 100. Three independent experiments were conducted and the vacuolation scores averaged to generate a mean+/−SEM. All cells were scored by one lab member after confirming that a blinded individual scored 5 compounds with similar results.

PP2A = PP2A phosphatase activity; format: biochemical, murine; settings: PP2A immunoprecipitated from FL5.12 cell lysates, phosphopeptide dephosphorylation
From the text: Furthermore, many embodiments of the invention are directed to azacyclic constrained sphingolipid-like molecules inducing internalization of nutrient transporters via a mechanism that activates PP2A. […] Thus, activation of PP2A is very peculiar to certain sphingolipid structures. Activation of PP2A by FTY720 and SH-BC-893 also stimulated vacuolation, and as the PP2A inhibitors calyculin A and SV40 small t antigen, each blocked this effect (FIG. 59C). Of note, YM201636-induced vacuolation was unaffected by PP2A inhibition (FIG. 60B). In addition, inhibiting PP2A restored PIKfyve to the proper location within vacuoles in cells treated with FTY720 or SH-BC-893 (FIG. 57D).
PP2A phosphatase activity. PP2A activity was measured using a PP2A immunoprecipitation phosphatase assay kit (EMD Millipore). Briefly, the catalytic subunit of PP2A was immunoprecipitated from FL5.12 cell lysates with 4 μg anti-PP2A, C subunit. After four washes, the activity of immunoprecipitated PP2A was assessed by dephosphorylation of the phosphopeptide according to the manufacturer's instructions in the presence or absence of C2-ceramide, dihydro-C2-ceramide, FTY720, SH-BC-893, or calyculinA.

[3] = tested on: murine hematopoietic cell line FL5.12; test: Viability of FL5.12 cells by vital dye exclusion; format: cell-based; settings: FL5.12 cells, 48 h, vital dye exclusion; n ≥3
Method: Cell culture studies: FL5.12 cells (murine hematopoetic cells originally obtained from Craig Thompson, Memorial Sloan Kettering Cancer Center) were maintained at 0.1-0.5 million/ml in RPMI 1640 (Mediatech) supplemented with 10% fetal calf serum (FCS, Sigma-Aldrich), 10 mM Hepes (Mediatech), 500 pg/ml recombinant IL-3 (cat #575502, Biolegend), 55 μM β-mercaptoethanol (Sigma-Aldrich), 2 mM L-glutamine (Mediatech), and antibiotics. Cells were screened for Mycoplasma every 3 months using the Look-Out Mycoplasma PCR Detection kit (cat #MP0035, Sigma).
IC50 values were calculated using GraphPad Prism (GraphPad Software, Inc, La Jolla, Calif.).

T5 sequence (Q99500 whole entry): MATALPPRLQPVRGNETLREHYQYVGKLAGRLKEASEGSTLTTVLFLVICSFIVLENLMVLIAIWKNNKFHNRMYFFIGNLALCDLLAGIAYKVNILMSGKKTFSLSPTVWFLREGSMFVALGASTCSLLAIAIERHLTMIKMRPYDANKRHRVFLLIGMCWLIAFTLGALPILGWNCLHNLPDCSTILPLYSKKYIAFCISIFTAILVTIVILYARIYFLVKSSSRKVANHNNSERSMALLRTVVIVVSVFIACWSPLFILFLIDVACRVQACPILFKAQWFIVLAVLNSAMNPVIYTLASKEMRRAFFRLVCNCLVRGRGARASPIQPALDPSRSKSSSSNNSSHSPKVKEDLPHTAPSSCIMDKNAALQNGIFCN
T1 sequence (Q9H228 whole entry): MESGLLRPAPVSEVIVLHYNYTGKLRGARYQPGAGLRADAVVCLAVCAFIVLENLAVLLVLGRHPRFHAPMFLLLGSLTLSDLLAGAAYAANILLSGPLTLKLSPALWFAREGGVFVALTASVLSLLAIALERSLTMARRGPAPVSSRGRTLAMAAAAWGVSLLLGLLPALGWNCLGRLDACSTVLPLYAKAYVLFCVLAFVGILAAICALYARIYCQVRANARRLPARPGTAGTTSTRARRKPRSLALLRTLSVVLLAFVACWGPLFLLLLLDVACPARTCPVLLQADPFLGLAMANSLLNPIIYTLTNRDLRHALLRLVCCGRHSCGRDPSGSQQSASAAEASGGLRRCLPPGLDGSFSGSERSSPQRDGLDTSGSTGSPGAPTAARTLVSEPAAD
T2 sequence (O95136 whole entry): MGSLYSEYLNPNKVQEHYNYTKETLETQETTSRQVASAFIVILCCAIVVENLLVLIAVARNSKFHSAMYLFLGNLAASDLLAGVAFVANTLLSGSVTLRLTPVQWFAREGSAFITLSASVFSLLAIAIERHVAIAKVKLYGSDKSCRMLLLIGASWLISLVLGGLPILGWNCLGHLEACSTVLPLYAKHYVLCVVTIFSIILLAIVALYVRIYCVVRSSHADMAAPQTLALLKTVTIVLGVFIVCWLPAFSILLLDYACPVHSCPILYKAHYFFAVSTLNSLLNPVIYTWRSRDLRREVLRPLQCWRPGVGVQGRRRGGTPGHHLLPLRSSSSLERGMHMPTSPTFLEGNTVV
T4 sequence (P21453 whole entry): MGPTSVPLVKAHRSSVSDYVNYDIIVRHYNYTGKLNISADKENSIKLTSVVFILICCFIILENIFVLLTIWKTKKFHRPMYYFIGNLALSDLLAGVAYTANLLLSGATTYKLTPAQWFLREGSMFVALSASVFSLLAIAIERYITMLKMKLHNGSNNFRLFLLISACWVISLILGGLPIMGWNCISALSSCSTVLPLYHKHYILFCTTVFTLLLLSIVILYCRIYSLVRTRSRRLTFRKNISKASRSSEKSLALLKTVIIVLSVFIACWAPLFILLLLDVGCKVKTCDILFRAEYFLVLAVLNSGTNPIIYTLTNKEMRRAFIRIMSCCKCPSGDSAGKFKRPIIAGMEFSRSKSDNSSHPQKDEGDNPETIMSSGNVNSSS

**Q.** With `CCCCCCCCc1ccc([C@H]2CCN[C@@H]2COP(=O)(O)O)cc1` [Compound 5-P, ((2S,3R)-3-(4-octylphenyl)pyrrolidin-1-ium-2-yl)Methyl hydrogen phosphate] as the compound, how does the lymphocyte sequestration [1] read?
**A.** no significant effect

**Q.** What about the “activation of S1P receptor 5” value (S1P receptor 5) of the same compound?
**A.** failed to activate

**Q.** And the “activation of S1P receptor 2” value (S1P receptor 2)?
**A.** failed to activate

**Q.** What about the “effect on heart rate” value [2] of the same compound?
**A.** no significant effect

**Q.** And the “activation of S1P receptor 4” value (S1P receptor 4)?
**A.** failed to activate

**Q.** And the “activation of S1P receptor 1” value (S1P receptor 1)?
**A.** weakly activated

**Q.** What about the “activation of S1P receptor 3” value (S1P receptor 3) of the same compound?
**A.** failed to activate

**Q.** Which results are given for `CCCCCCCCCCCCCCC[C@@H](O)[C@H](CO)NC(C)=O` [Compound 110, dihydro-C2-ceramide, reference compound]?
**A.** Vacuolation score (FL5.12 cells; 3 h in 2.5 μM compound except where otherwise indicated, mean ± SEM, n ≥3): 0; vacuolation (in words) (FL5.12 cells; at any dose / highest dose tested): caused no vacuolation; PP2A activation (PP2A): does not activate PP2A; IC50 (μM) [95% CI] [3]: failed to kill cells; also recorded: Cytostatic
